Data as given in patent US7893108B2, “Antiviral methods and compositions” (priority 2004, dated 2011).
“Also recorded” adds a separate entry of the source. Where two headings read alike, the source gives them in different places.

Experiments:
UL54 = UL54 (Human cytomegalovirus, UniProt P08546); experiment: basal DNA polymerase activity of UL54 alone (filter-based assay); format: biochemical; conditions: 0, 4, 20, 40, 100 μM; 20 min at 37° C.; read-out: IC50 for inhibition of the activity of UL54 alone
Procedure: The basal DNA polymerase activity of UL54 in the absence or in the presence of various amounts of each compound was measured by a filter-based assay as previously described (Loregian et al., 2003), but using 5 μl of in vitro-transcribed and -translated UL54 as in Loregian et al. (Loregian et al., 2004a). The reaction was initiated by addition of a reaction mixture containing 75 mM Tris-HCl (pH 8.0), 6.5 mM MgCl2, bovine serum albumin (400 μg/ml), 1.67 mM β-mercaptoethanol, 150 mM KCl, 1.6 μM [^3H]dTTP, poly(dA)-oligo(dT) (10 μg/ml; Amersham Pharmacia Biotech), and 0, 4, 20, 40, 100 μM of each compound. Samples were taken after 20 min of incubation at 37° C. and spotted onto DE81 filters (Whatman), previously soaked in 0.1 M EDTA and air dried. The filters were washed three times in 5% Na2HPO4, two times in water, and two times in methanol and then were dried. Radioactivity was measured with a scintillation counter.

UL54 plus GST-UL44ΔC290 = target: T1, UL54 plus GST-UL44ΔC290 (Human cytomegalovirus, UniProt P16790); experiment: long-chain DNA synthesis by UL54 in the presence of UL44; format: biochemical, HCMV; conditions: for inhibition of long-chain DNA synthesis by UL54 and UL44: dose-response
T1 construct: GST-UL44ΔC290 fusion protein, which contains the N-terminal 290 residues of HCMV UL44; made in house; host or cells: UL54: in vitro transcription/translation; GST-UL44ΔC290: E. coli BL21 (DE3)pLysS
Procedure: To analyze the ability of the compounds to interfere with functional UL54-UL44 interactions, we tested their ability to inhibit long-chain DNA synthesis by UL54 in the presence of UL44 employing a poly(dA)-oligo(dT)12-18 template-primer.
DNA polymerase assays. The effects of compounds were tested in an assay that measures long-chain DNA synthesis as described in Loregian et al. (Loregian et al., 2004a), with 5 μl of in vitro-transcribed and -translated UL54 plus 800 fmol of GST-UL44ΔC290 in the absence or in the presence of various amounts of each compound.
The effect of the compounds was also tested in an assay that measures long chain (Lc) DNA synthesis as described in Loregian et al., J. Virol. […]

HCMV AD169 = experiment: virus yield reduction assay; format: cell-based, human cytomegalovirus
Procedure: Next, we tested the effects of selected compounds and of GCV as a control in viral yield assays, which measure the titer of virus progeny produced following infection at relatively high multiplicity. In these assays, the viral titer was measured at two different times points post-infection (p.i.): at 96 hrs, when the release of virus progeny is increasing, and at 120 hrs, when the titer of virus progeny after a single cycle of replication reaches peak levels (Stinski, 1983).
(§1) For yield reduction assays, HFF cells were plated at 2×10^4 cells per well in 96-well cluster dishes, incubated overnight, and infected with HCMV AD169 at a multiplicity of infection (MOI) of 1. After virus adsorption for 2 hr at 37° C., cells were washed and incubated with 200 μl of fresh media containing test compounds at increasing drug concentration. Plates were incubated for 3 or 5 days at 37° C. and subjected to one cycle of freezing and thawing, and titers were determined by transferring 100-μl aliquots from each of the wells to a fresh 96-well monolayer culture of HFF cells followed by 1:5 serial dilution across the plate. Cultures were incubated for 7 days, cells were stained, and the numbers of plaques were determined as described above.
as §1, with “The effect of the compounds was assessed in an assay of virus yield. In this assay, cells are infected at a relatively high multiplicity of infection (about one per cell) and then drug is added. The virus produced at the different times post infection is measured. 120 hrs. is about the peak titer. This assay was conducted as follows.” for “For yield reduction assays,”, “20,000” for “2×10^4”, “an MOI” for “a multiplicity of infection (MOI)”, “0.1, 0.3, 1, 3, 10, 30 μM” for “increasing”

HFF cells = experiment: XTT cytotoxicity assay; format: cell-based, human
Procedure: (§2) Cytotoxicity assays. HFF cells were seeded at 2×10^4, 4×10^3, or 10^3 cells per well into 96-well plates and, after a 3-hr incubation to allow cell attachment, were treated for 24, 72, or 120 hr, respectively, with various concentrations of each compound in duplicate. Cell viability was then determined with an XTT assay (Roche Molecular Biochemicals) according to the manufacturer's protocol by using a Victor plate reader (Wallac).
(§3) The cytotoxicity of the compounds was measured in an XTT assay. XTT is a compound that is converted to a product that can be measured […], but only by viable cells. This assay is as follows. HFF (human foreskin fibroblasts) cells were seeded at different concentrations into 96-well plates and treated with various concentrations (from 0 to 200 μM) of each compound in duplicate for 24, 72 or 120 hr. Cell viability was then determined with an XTT assay (Roche Molecular Biochemicals) according to the manufacturer's protocol by using a Victor plate reader (Wallac).

[1] = target: T2, full-length UL54 / UL44 interaction (Human cytomegalovirus, UniProt P16790); experiment: UL54-UL44 interaction ELISA; format: binding, HCMV; conditions: concentrations up to 200 μM
T2 construct: made in house; host or cells: baculovirus expression; proteins provided by H. S. Marsden (Institute of Virology, Glasgow)
Procedure: In this assay, binding between purified baculovirus-expressed UL54 and UL44, which was tagged with an EEF epitope, was detected using an antibody that recognizes the epitope tag (Loregian et al., 2003).
UL54-UL44 interaction ELISA. This assay was conducted as described in (Loregian et al., 2003), testing various concentrations of each compound. After final washes, the chromogenic substrate 2,2′-azino-bis(3-ethylbenzothiazoline-6-sulphonic acid (ABTS, Pierce) in citrate phosphate buffer (pH 4.0) containing 0.01% hydrogen peroxide was added and absorbance was read at 405 nm on a Victor plate reader (Wallac).
Another assay that was used to test the effect of the compounds on the interaction of UL44 and UL54 is an ELISA interaction assay, which measures the interaction of the two full length proteins with each other. This assay was conducted as described in Loregian et al., J. Virol. 2003, 77:8336-8344, testing different concentrations (0, 3.12, 6.25, 12.5, 25, 50, 100, 200 μM) of each compound.

HCMV strain AD169 = experiment: plaque reduction assay; format: cell-based, human cytomegalovirus; conditions: HFF cells; 0-30 μM
Procedure: Antiviral assays. Plaque reduction assays were performed essentially as follows: HFF (human foreskin fibroblast) cells were seeded at 2×10^5 cells per well in 24-well cluster dishes. The next day, cells were infected with HCMV (strain AD169) at 80 PFU per well in DMEM plus 5% fetal bovine serum (FBS) at 37° C. Two hours post-infection, the inocula were removed, cells were washed, and media containing various drug dilutions, 5% FBS, and 0.6% methylcellulose were added. All drug dilutions were tested at least in duplicate. After incubation at 37° C. for 10-11 days, cell monolayers were stained with crystal violet and plaques were counted under light microscopy.
The effect of the compounds was assessed in a plaque reduction assay that measures the number of plaques formed in the presence of varying concentrations of a drug, as follows. HFF were seeded at 2×10^5 cells per well in 24-well cluster dishes. The next day, they were infected with HCMV AD169 at 80 PFU per well in DMEM plus 5% FBS at 37° C. Two hr post-infection, the inocula were then removed, cells were washed, and media containing selected drug dilutions (0, 0.1, 0.3, 1, 3, 10, 30 μM), and 5% FBS and 0.6% methylcellulose were added. All drug dilutions were tested at least in duplicate. After incubation at 37° C. for 10-11 days, cell monolayers were stained with crystal violet and plaques were enumerated under light microscopy.

XTT cytotoxicity assay = format: cell-based, human; conditions: human
Procedure: as §2, §3

[2] = literature; cited from earlier work

T1 sequence (P16790 1-290, stated change not applied): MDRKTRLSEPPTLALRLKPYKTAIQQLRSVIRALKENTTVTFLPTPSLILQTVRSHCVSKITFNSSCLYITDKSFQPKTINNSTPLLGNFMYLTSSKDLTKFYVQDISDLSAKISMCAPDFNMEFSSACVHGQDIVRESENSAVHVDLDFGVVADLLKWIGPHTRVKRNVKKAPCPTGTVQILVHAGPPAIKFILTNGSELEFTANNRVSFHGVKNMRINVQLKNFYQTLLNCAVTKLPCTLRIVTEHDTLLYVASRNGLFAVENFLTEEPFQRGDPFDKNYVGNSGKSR
T2 sequence (P16790 whole entry): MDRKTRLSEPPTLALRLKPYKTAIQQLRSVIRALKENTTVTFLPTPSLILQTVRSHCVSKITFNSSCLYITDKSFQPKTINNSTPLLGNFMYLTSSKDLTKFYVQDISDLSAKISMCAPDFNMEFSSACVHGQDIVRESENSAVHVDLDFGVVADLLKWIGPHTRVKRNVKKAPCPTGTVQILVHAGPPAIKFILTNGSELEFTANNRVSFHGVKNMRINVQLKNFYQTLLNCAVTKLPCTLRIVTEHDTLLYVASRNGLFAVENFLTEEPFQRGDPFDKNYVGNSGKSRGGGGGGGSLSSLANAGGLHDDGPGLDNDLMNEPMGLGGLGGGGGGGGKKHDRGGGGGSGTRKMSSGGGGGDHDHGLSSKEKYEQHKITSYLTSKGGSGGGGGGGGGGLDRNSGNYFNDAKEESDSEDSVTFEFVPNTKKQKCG
Chain of UL54 (P08546 whole entry): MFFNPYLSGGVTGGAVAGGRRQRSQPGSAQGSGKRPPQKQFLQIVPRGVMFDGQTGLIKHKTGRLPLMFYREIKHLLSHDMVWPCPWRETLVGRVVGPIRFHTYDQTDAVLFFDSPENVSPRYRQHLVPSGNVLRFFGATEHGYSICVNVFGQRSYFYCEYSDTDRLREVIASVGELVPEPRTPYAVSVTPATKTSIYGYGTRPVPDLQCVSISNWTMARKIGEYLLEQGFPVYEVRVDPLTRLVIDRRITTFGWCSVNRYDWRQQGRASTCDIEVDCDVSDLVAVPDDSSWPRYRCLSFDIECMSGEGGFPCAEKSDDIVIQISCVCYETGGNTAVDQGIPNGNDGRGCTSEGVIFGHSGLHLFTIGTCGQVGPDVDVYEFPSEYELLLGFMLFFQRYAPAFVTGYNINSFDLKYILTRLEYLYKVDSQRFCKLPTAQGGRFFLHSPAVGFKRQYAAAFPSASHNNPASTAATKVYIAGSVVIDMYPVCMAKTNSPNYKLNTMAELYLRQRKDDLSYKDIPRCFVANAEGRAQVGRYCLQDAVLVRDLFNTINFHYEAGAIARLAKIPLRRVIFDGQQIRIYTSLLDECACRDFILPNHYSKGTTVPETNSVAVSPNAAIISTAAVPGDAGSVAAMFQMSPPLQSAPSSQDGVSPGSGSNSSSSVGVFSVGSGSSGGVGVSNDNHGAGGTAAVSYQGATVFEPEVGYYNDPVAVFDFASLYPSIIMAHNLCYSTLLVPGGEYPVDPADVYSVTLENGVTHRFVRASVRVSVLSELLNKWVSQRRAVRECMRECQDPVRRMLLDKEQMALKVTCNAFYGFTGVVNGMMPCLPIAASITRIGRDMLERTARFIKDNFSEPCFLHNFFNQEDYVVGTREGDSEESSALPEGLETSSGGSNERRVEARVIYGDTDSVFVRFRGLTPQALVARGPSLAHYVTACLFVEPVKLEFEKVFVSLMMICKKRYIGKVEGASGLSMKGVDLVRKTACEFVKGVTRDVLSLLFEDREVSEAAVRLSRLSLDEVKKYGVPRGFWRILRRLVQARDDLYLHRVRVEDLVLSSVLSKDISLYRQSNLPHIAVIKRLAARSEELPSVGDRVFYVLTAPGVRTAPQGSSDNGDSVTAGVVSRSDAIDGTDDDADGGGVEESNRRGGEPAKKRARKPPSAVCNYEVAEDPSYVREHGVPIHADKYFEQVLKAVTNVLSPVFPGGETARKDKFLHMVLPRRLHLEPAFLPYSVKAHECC

## CCOc1cc(C2C(C#N)=C(N)Oc3n[nH]c(-c4ccc(OC)cc4)c32)cc([N+](=O)[O-])c1O (stereo not drawn) [AL2]
UL54
  IC50: 95 µM
UL54 plus GST-UL44ΔC290
  inhibition of long-chain DNA synthesis by UL54 and UL44: little or no inhibition
HCMV AD169
  effect on virus yield / HCMV replication: little or no effect

## Nc1ccc(N)c2c1C(=O)c1c(O)ccc(O)c1C2=O [AL18]
HFF cells; 120 hrs, HFF cells
  CC50: 200 µM
HFF cells; HFF cells, 24, 72 or 120 hr
  cytotoxicity: relatively high CC50's
[1]
  inhibition of the UL54-UL44 physical interaction: potent
HCMV strain AD169
  IC50s in plaque reduction assay: relatively low IC50s
UL54 plus GST-UL44ΔC290; 40 μM
  inhibition of long-chain DNA synthesis by UL54 and UL44 at one concentration: severely decreased formation of long DNA products
UL54 plus GST-UL44ΔC290
  inhibition of long-chain DNA synthesis by UL54 and UL44: relatively low IC50s
HCMV AD169
  effect on virus yield / HCMV replication: relatively low IC50s; also recorded: submicromolar

## CNC(=S)NN=Cc1ccc(OC)c(Br)c1 [AL20]
HFF cells
  cytotoxic concentration relative to antiviral concentration: 7-500 fold
  cytotoxicity: relatively high CC50's
[1]
  inhibition of the UL54-UL44 physical interaction: did not significantly inhibit
HCMV strain AD169
  IC50s in plaque reduction assay: relatively low IC50s
UL54 plus GST-UL44ΔC290
  inhibition of long-chain DNA synthesis by UL54 and UL44: little or no inhibition
HCMV AD169
  effect on virus yield / HCMV replication: relatively low IC50s

## Nc1nc(O)c2ncn(COC(CO)CO)c2n1 [GCV, ganciclovir, reference compound]
XTT cytotoxicity assay
  CC50: ~200 µM

## Nc1ccn(C[C@@H](CO)OCP(=O)(O)O)c(=O)n1 [cidofovir]
[2]
  cytotoxic activities reported: 360 µM
